Results reported in patent US9012674B1, “Ethyl (2R)-2-acetamido-3-(4-methylbenzoylsulfanyl)propanoate and uses thereof” (Promentis Pharmaceuticals, Inc., priority 2013, dated 2015).

Experiments:
[1] = system: human glial cells from brain astrocytoma (1321N1); assay: 14C-cystine uptake in human astrocytoma cell culture; assay type: cell-based; settings: 100 μM (most effective concentration); three hour incubation; versus untreated control; average of three experiments
Description: The goal of these experiments was to determine ^14C-cystine uptake. The experiments were conducted as follows.
The screening of the compound was performed using an in vitro culture system of human glial cells from brain astrocytoma (1321N1). Cells were plated on 24 well plates coated with poly-D-lysine and laminin and grown in a balanced salt solution supplemented with 5% heat inactivated horse serum, 5% fetal bovine serum, 2 mM glutamine and glucose (total 21 mM). Cultures were maintained in humidified 5% CO2 incubators at 37° C. for 3-4 days before experiments were performed, at this time the cultures has formed a single confluent layer. For experiments, cultures were washed 3 times into a Na-free HEPES and HCO3^− buffered balanced salt solution. After 1 hour the test compounds are added. Following a three hour incubation, ^14C-cystine (0.025 mCi/mL) was then added for 20 minutes. Following the ^14C-cystine exposure, cultures were washed 3 times with ice cold HEPES buffered saline solution and dissolved in 250 μl sodium dodecyl sulfate (0.1%). An aliquot (200 μl) was removed and added to scintillation fluid for counting. Values were normalized to ^14C-cystine uptake in untreated controls on the same experimental plate. […]

[2] = system: human glial cells from brain astrocytoma (1321N1); assay: 3H-glutamate release in human astrocytoma cell culture; assay type: cell-based; settings: 300 μM (most effective concentration); at 3 hours; versus untreated control
Description: This assay also uses the cell culture system of human glial cells from brain astrocytoma (1321N1) described above. Initially, cells are washed with HBBSS, and ^3H-glutamate is added (PerkinElmer: 1 mCi/mL stock solution is diluted (30 μL+500 μL HBBSS) and 10 μL of diluted radiolabel is added to each well). Following a 1 hour incubation to load the cells with the labeled glutamate, the cells are washed again with HBBSS, and the drug is added. At 30, 90, and 180 minutes, 50 μL of extracellular media is sampled from each well and is measured using a Beckman LS 6500 scintillation counter.
Results of the ^14C-cystine uptake and ^3H-glutamate release by astrocytes treated with differing concentrations of Pro-4051, are presented in FIG. 1, as a percentage of the untreated control. […] This graph represents an average of three experiments run.

Solubility data = assay type: physicochemical; settings: according to solubility data; read-out: concentration above which compound is not in solution (solubility)

solubility (Solubility data): ≤ 316 µM
Compound: CCOC(=O)[C@H](CSC(=O)c1ccc(C)cc1)NC(C)=O [Pro-4051, ethyl (2R)-2-acetamido-3-(4-methylbenzoylsulfanyl)propanoate]
decrease in 14C-cystine uptake [1]: approximately 28%
increase in 3H-glutamate release [2]: approximately 100%
